Test results from patent US9260461B2, “Water-soluble derivatives and prodrugs of acacetin and methods of making and using thereof” (Versitech Limited, priority 2014, dated 2016).

Experiments:
[1] = biological target: T1, Kv4.3 current (hKv4.3 gene expressed in HEK 293 cells) (Homo sapiens, UniProt Q9UK17); assay: Whole-cell patch-clamp, Kv4.3 current in HEK 293 cells; format: cell-based; details: 30 μM, representative cells
T1 construct: expressed in transfected cells
T1 sequence (Q9UK17 1-655): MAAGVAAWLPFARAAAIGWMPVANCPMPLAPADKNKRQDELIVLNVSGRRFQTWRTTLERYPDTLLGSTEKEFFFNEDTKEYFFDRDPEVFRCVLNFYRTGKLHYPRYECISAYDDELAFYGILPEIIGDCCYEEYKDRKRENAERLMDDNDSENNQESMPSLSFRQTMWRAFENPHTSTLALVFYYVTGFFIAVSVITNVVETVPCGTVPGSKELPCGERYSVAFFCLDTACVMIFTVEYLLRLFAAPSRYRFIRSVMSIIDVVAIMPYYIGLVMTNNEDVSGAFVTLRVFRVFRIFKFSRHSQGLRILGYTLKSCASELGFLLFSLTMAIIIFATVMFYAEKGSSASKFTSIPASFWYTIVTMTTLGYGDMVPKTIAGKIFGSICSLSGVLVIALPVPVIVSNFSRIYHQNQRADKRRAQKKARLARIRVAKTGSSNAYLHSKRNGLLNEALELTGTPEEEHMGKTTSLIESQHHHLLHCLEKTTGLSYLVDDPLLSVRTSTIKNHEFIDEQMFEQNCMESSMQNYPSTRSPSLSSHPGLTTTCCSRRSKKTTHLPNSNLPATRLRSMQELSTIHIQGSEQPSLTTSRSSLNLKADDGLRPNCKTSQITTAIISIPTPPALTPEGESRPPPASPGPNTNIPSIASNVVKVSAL
Experimental: HEK 293 cell line stably expressing the hKV1.5 gene (Wu et al., 2011) or hKv4.3 gene (Wu et al., 2013) was maintained in Dulbecco's modified eagle's medium (DMEM, Invitrogen, Hong Kong) supplemented with 10% fetal bovine serum and 400 μg/mL G418 in a 5% CO2 incubator. Cells were seeded on a glass cover slip for electrophysiology recording.
(§1) Ionic currents in HEK 293 cell lines and rat atrial myocytes were measured by the standard whole-cell patch-clamp technique using a standard pipette and bath solution with an EPC-10 amplifier and Pulse software (HEKA, Lambrecht, Germany). A 3M KCl-agar salt bridge was used as the reference electrode. The current signal was sampled at 5 kHz, recorded and stored in the hard disk of an IBM compatible computer. All experiments were conducted at room temperature (22-23° C.).
However, Kv1.5 current (FIG. 3D), Kv4.3 current (FIG. 3E) or IKACh (FIG. 3F) was inhibited by 10 μM acacetin in representative cells consistent with experimental reports.

[2] = test system: myocardial infarction induced by ischemia-reperfusion; assay: Ventricular infarct area (TTC staining) in anesthetized rats with ischemia-reperfusion; format: in vivo; details: 10 mg/kg i.v.; n=4, P<0.01 vs vehicle
IKACh = biological target: T2, IKACh (Rattus norvegicus, UniProt P48548+P63251); assay: Whole-cell patch-clamp, IKACh activated by 5 μM carbachol in rat atrial myocytes; format: cell-based; details: 30 μM, representative cells
T2 construct: from tissue; host or cells: freshly isolated left atrial myocytes of SD rats
T2 sequence (P63251 1-501): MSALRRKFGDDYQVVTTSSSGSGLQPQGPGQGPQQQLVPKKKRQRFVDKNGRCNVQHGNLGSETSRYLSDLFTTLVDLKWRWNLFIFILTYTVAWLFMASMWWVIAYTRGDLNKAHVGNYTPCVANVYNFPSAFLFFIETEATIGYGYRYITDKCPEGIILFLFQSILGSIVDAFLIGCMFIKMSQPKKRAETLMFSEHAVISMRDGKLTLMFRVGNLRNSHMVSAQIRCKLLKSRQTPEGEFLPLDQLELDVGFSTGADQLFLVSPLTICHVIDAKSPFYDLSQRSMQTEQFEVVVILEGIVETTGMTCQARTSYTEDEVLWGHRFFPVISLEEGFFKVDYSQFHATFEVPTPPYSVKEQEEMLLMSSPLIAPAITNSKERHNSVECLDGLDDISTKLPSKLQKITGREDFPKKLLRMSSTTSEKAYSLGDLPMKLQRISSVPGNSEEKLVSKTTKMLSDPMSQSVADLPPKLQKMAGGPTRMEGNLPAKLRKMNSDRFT
T2 sequence (P48548 1-419): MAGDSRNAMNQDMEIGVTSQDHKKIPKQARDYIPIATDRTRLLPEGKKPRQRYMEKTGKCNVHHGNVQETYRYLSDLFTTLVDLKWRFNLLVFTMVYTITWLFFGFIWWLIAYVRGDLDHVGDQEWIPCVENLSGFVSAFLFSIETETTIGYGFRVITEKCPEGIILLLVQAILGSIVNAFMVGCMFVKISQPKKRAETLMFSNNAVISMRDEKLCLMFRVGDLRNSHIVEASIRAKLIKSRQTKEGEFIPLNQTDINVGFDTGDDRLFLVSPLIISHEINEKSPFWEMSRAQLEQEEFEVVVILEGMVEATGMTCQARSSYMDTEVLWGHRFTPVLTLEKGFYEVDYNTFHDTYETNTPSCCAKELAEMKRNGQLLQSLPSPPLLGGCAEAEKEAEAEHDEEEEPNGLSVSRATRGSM
Experimental: Rat atrial myocytes were prepared with the procedure described previously (Li et al., 2002) with a slight modification. Briefly, After SD rats (250-300 g) were anesthetized with pentobarbital (30 mg/kg i.p.), the heart was mounted to a Langendorff heart perfusion apparatus via the aorta and perfused with HEPES-buffered Tyrode's solution at 37° C. gassed with 100% 02 for 5 min. The heart was perfused with Ca^2+-free Tyrode's solution for 5-8 min, followed by Ca^2+-free Tyrode's solution containing 0.06% collagenase (Type II, Worthington Biochemical, Lakewood, N.J., USA) and 0.1% bovine serum albumin (Sigma). When the heart became softened the left atrium was excised and placed in a high-K storage medium at room temperature for 2 h, and then used for electrophysiological recording (Li et al., 2002).
as §1, with “C.). […]” for “C.).”

COc1ccc(-c2cc(=O)c3c(O)cc(OP(=O)(O)O)cc3o2)cc1 [Prodrug A]
effect on Kv4.3 current [1]: no inhibitory effect
ventricular infarct area [2]: reduced
effect on IKACh (IKACh): no inhibitory effect
